ChEMBL document CHEMBL5303304, “EUbOPEN Chemogenomics Library - IncuCyte” (2023)

Tests used:
Assay type in all cases: toxicity, cell-based
HEK-293T = assay: Incucyte cell viability with HEK293T; settings: human, 10 µM, compound concentration 10 uM
Fibroblast = assay: Incucyte cell viability with human fibroblast; settings: 10 µM, compound concentration 10 uM
U2OS = assay: Incucyte cell viability with U2OS; settings: human, 10 µM, compound concentration 10 uM
Note: unitless GR value; below 1 slowed growth and below 0 cell loss.

SMILES | Growth Rate (HEK-293T; 0 h, replicate number 1) | Growth Rate (HEK-293T; 0 h, replicate number 2) | Growth Rate (HEK-293T; 6 h, replicate number 1) | Growth Rate (HEK-293T; 12 h, replicate number 1) | Growth Rate (HEK-293T; 18 h, replicate number 1) | Growth Rate (HEK-293T; 24 h, replicate number 1) | Growth Rate (Fibroblast; 6 h, replicate number 2) | Growth Rate (Fibroblast; 24 h, replicate number 2) | Growth Rate (U2OS; 12 h, replicate number 2) | Growth Rate (Fibroblast; 6 h, replicate number 1) | Growth Rate (Fibroblast; 12 h, replicate number 2) | Growth Rate (Fibroblast; 18 h, replicate number 2) | Growth Rate (U2OS; 0 h, replicate number 1) | Growth Rate (U2OS; 0 h, replicate number 2) | Growth Rate (U2OS; 6 h, replicate number 1) | Growth Rate (Fibroblast; 0 h, replicate number 1) | Growth Rate (Fibroblast; 0 h, replicate number 2) | Growth Rate (Fibroblast; 12 h, replicate number 1) | Growth Rate (Fibroblast; 18 h, replicate number 1) | Growth Rate (Fibroblast; 24 h, replicate number 1) | further results
O=C(O)C[C@H]1CC[C@H](c2ccc(NC(=O)c3nnc(Nc4ccc(F)c(F)c4)o3)cc2)CC1 | 0.29 | -0.23 | 0.74 | 0.69 | 0.76 | 0.86 | 0.97 | 0.99 | 0.72 | – | – | – | – | – | – | – | – | – | – | – | Growth Rate (U2OS; 6 h, replicate number 2): 0.7; Growth Rate (U2OS; 18 h, replicate number 2): 0.93; Growth Rate (U2OS; 24 h, replicate number 2): 0.96
CCC(C)(C)CC[C@H](NC(=O)N1CCOCC1)C(=O)NC1(C#N)CCN(C)CC1 | 0.93 | -0.17 | – | – | – | – | -0.59 | 0.95 | 0.96 | 0.76 | 0.5 | 0.95 | 0.09 | -0.03 | 1 | – | – | – | – | – | Growth Rate (HEK-293T; 12 h, replicate number 2): 0.91; Growth Rate (U2OS; 24 h, replicate number 1): 0.88
COP(=O)(CCC(N)C(=O)O)Oc1cccc(CC(=O)O)c1 (stereo not drawn) | 0.66 | – | – | 0.97 | 0.94 | 0.92 | – | – | 0.91 | 0.49 | – | – | 0.98 | – | 0.8 | -1 | -0.57 | 0.92 | 0.86 | 0.74 | Growth Rate (U2OS; 24 h, replicate number 2): 0.93
CN(C)C(=O)Cn1cc(-c2ccc(-c3cncc4ccccc34)cc2)cn1 | 0.29 | 0.39 | 0.92 | – | – | – | -0.33 | – | 0.83 | 0.8 | 0.98 | – | 0.61 | – | 0.46 | -1 | – | – | – | – | Growth Rate (U2OS; 18 h, replicate number 1): 0.99; Growth Rate (U2OS; 24 h, replicate number 1): 0.9
O=C(O)c1ccc2c(c1)nc(NCc1ccccc1)c1ncncc12 | -0.17 | -0.9 | – | – | – | – | – | – | – | – | – | – | 0.98 | – | – | -0.98 | -0.94 | 0.74 | – | – | –
CCn1c(CNC(=O)c2ncc(C)nc2N)[n+](CC)c2ccc(C(=O)N(C)CCN(C)C)cc21.Cl.Cl.[Cl-] | 0.03 | – | – | 0.97 | – | 1 | – | – | 0.9 | 0 | – | – | – | 0.31 | 0.58 | -1 | -0.3 | 0.87 | 0.98 | 0.9 | Growth Rate (U2OS; 6 h, replicate number 2): 0.99; Growth Rate (U2OS; 12 h, replicate number 1): 0.62; Growth Rate (U2OS; 24 h, replicate number 1): 0.97
CO[C@H]1CC[C@H](N(c2cc(F)c(Oc3ncc(Cn4nccn4)cc3C(F)(F)F)cc2C(=O)O)C(=O)[C@H]2CC[C@H](C)CC2)CC1 | 0.27 | -0.25 | – | – | – | – | -0.41 | 0.67 | 0.82 | 0.07 | – | – | 0.66 | – | 0.6 | -1 | – | – | 0.76 | 0.77 | Growth Rate (U2OS; 6 h, replicate number 2): 0.76; Growth Rate (U2OS; 18 h, replicate number 2): 1; Growth Rate (U2OS; 24 h, replicate number 2): 0.87
COc1ccc2c(O[C@@H]3C[C@H]4C(=O)N[C@]5(C(=O)NS(=O)(=O)C6(C)CC6)CC5/C=C\CCCCC[C@H](NC(=O)c5ccn(C)n5)C(=O)N4C3)cc(OC(C)C)nc2c1C (stereo partly drawn) | 1 | 0.49 | 0.89 | 0.8 | 0.9 | 0.9 | -0.88 | 0.88 | 0.63 | – | – | 0.84 | – | -0.46 | – | – | 0.85 | – | 0.9 | 0.9 | Growth Rate (U2OS; 6 h, replicate number 2): 0.93; Growth Rate (U2OS; 18 h, replicate number 1): 0.99; Growth Rate (U2OS; 18 h, replicate number 2): 0.79; Growth Rate (U2OS; 24 h, replicate number 2): 0.78
Cc1nc2ccc(Cl)cc2c(-c2ccccc2)c1CC(=O)O.Cl | 0.38 | – | – | – | – | – | – | 0.96 | 0.93 | – | 0.53 | 0.88 | 0.45 | – | 0.43 | – | – | – | – | – | –
C1CCC(NC2CCCCC2)CC1.Cc1cc(Cl)ccc1S(=O)(=O)NC[C@H]1C2CCC(CC2)[C@@H]1/C=C\CCCC(=O)O | 0.61 | – | – | – | – | – | 0.75 | – | – | 0.25 | 0.97 | 0.9 | – | – | – | – | -0.12 | – | – | – | Growth Rate (U2OS; 18 h, replicate number 2): 0.99
CCCN1CCC(C#N)(NC(=O)[C@H](CC(C)(C)C)NC(=O)N2CCOCC2)CC1 | 0.04 | – | – | – | – | – | – | – | – | 0.97 | 0.45 | – | – | 0.82 | 0.96 | – | -0.89 | 0.82 | 0.88 | 0.83 | –
Nc1ncc2c(n1)-c1c([nH]c3ccc(C4=CCOCC4)cc13)CCC2 | 0.56 | -0.64 | -0.33 | -0.13 | 0.18 | 0.37 | – | 0.71 | 0.98 | – | 0.71 | 0.96 | – | 0.72 | 0.74 | – | -0.45 | 0.69 | 0.73 | 0.68 | Growth Rate (HEK-293T; 6 h, replicate number 2): -0.1; Growth Rate (HEK-293T; 12 h, replicate number 2): -0.09; Growth Rate (HEK-293T; 18 h, replicate number 2): 0.36; Growth Rate (HEK-293T; 24 h, replicate number 2): 0.41; Growth Rate (U2OS; 18 h, replicate number 1): 0.96; Growth Rate (U2OS; 24 h, replicate number 1): 0.76
CCN1C(=O)c2cc(C)ccc2N(C)c2ncccc21 | 0.6 | 0.45 | 0.52 | 0.32 | 0.42 | 0.65 | 0.79 | – | 0.85 | 0.13 | 0.29 | 0.88 | – | 0.61 | – | -1 | -0.91 | 0.88 | 0.79 | – | Growth Rate (HEK-293T; 6 h, replicate number 2): 1; Growth Rate (HEK-293T; 12 h, replicate number 2): 0.41; Growth Rate (HEK-293T; 18 h, replicate number 2): 0.71; Growth Rate (HEK-293T; 24 h, replicate number 2): 0.74; Growth Rate (U2OS; 6 h, replicate number 2): 0.81; Growth Rate (U2OS; 12 h, replicate number 1): 0.87; Growth Rate (U2OS; 18 h, replicate number 2): 0.7; Growth Rate (U2OS; 24 h, replicate number 2): 0.8
